Measurements reported in BigSolDB 2.1.

CC(C)(C)c1ccc(-c2nnc(-c3ccc(-c4ccccc4)cc3)o2)cc1
solubility (mole fraction)
Settings | 273.15 K | 283.15 K | 293.15 K | 303.15 K | 313.15 K | 323.15 K | 333.15 K
in DMSO | – | – | 0.00363 | 0.00603 | 0.00886 | 0.0133 | 0.0187
in NMP | – | 0.0542 | 0.0662 | 0.0767 | 0.0954 | 0.115 | –
in THF | – | 0.0524 | 0.0589 | 0.065 | 0.0725 | 0.0817 | –
in acetonitrile | – | 0.00143 | 0.00234 | 0.00313 | 0.00464 | 0.00615 | –
in chlorobenzene | – | 0.0587 | 0.0709 | 0.0834 | 0.0952 | 0.112 | –
in dichloromethane | 0.0818 | 0.0911 | 0.104 | 0.112 | – | – | –
in ethanol | – | 0.00062 | 0.000963 | 0.00148 | 0.00222 | 0.00315 | –
in ethyl acetate | – | 0.0114 | 0.0153 | 0.0223 | 0.03 | 0.0392 | –
in isopropanol | – | 0.000711 | 0.0012 | 0.00174 | 0.00274 | 0.00324 | –
in methanol | – | 0.000412 | 0.000703 | 0.00105 | 0.00185 | 0.00281 | –
in n-hexane | – | 0.000411 | 0.000596 | 0.000996 | 0.00164 | 0.00235 | –
in toluene | – | 0.0303 | 0.04 | 0.0585 | 0.0834 | 0.109 | –
